The record followed here is ChEMBL document CHEMBL3797088, “Discovery and structure activity relationship study of novel indazole amide inhibitors for extracellular signal-regulated kinase1/2 (ERK1/2)” (Bioorg Med Chem Lett, 2016).

One data set has as its system HT-29. As to the kind of experiment: Antiproliferative activity against human HT-29 cells harboring B-RAF V600E mutant after 72 hrs by SRB assay. In kind it is functional, cell-based. The following applies: HT-29, 72 h.
Data set [1] addresses Mitogen-activated protein kinase 1 (Homo sapiens, UniProt P28482). As to the kind of experiment: Inhibition of human recombinant GST-tagged ERK2 expressed in Escherichia coli using ser/thr 3 Peptide as substrate preincubated for 1 hr measured after 1 hr by Z-LYTE assay.
In data set [2] the target is Mitogen-activated protein kinase 3 (Homo sapiens, UniProt P27361). As to the kind of experiment: Inhibition of human recombinant GST-tagged ERK1 expressed in Escherichia coli using ser/thr 3 Peptide as substrate preincubated for 1 hr measured after 1 hr by Z-LYTE assay.
Chain of Mitogen-activated protein kinase 3 (P27361 whole entry): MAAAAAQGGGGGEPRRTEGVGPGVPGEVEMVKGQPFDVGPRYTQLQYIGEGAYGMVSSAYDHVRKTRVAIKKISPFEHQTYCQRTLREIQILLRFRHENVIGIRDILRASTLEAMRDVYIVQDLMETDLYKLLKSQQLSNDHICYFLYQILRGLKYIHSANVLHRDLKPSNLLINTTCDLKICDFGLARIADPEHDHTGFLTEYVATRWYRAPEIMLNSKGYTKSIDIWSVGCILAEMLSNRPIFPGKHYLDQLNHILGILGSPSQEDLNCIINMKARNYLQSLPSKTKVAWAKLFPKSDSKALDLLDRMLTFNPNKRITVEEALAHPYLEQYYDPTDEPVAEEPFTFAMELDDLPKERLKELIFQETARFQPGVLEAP
Data set [3] is described as follows: Apparent permeability in human Caco2 cells assessed as Fabs after 95 mins by LC-MS/MS analysis. The following applies: caco-2, 95 min. In kind it is ADME, cell-based.
For data set [4], the target named is Mitogen-activated protein kinase; ERK1/ERK2 (Homo sapiens) (UniProt P27361+P28482). As to the kind of experiment: Inhibition of ERK1/ERK2 in human HT-29 cells assessed as reduction in p90RSK phosphorylation after 2 hrs by Western blot analysis. The data set is classed as cell-based.
Chain of Mitogen-activated protein kinase; ERK1/ERK2 (Homo sapiens) (P27361 whole entry, looked up): as the sequence (P27361 whole entry) above
Chain of Mitogen-activated protein kinase; ERK1/ERK2 (Homo sapiens) (P28482 whole entry, looked up): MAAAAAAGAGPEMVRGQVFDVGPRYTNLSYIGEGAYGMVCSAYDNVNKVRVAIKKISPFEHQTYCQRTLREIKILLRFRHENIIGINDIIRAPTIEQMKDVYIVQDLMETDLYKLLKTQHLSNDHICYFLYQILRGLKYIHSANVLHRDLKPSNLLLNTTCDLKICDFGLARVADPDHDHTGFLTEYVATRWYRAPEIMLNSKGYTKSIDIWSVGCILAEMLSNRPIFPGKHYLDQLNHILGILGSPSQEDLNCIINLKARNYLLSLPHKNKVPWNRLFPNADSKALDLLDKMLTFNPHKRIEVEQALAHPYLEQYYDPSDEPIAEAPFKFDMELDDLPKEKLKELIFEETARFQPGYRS
Data set [5] has as its target Dual specificity mitogen-activated protein kinase kinase; MEK1/2 (Homo sapiens) (UniProt P36507+Q02750). In words: Inhibition of ERK phosphorylation in human HT-29 cells after 2 hrs by Western blot analysis. In kind it is cell-based. On the technique in general: In western blotting, separated proteins are transferred to a membrane and probed.

The source made the active and inactive calls. No cut-off for these calls is given here.

The IC50 is the concentration needed to halve the response being measured.

Chain of Mitogen-activated protein kinase 1 (P28482 whole entry): as the sequence (P28482 whole entry, looked up) above
Chain of Dual specificity mitogen-activated protein kinase kinase; MEK1/2 (Homo sapiens) (P36507 whole entry, looked up): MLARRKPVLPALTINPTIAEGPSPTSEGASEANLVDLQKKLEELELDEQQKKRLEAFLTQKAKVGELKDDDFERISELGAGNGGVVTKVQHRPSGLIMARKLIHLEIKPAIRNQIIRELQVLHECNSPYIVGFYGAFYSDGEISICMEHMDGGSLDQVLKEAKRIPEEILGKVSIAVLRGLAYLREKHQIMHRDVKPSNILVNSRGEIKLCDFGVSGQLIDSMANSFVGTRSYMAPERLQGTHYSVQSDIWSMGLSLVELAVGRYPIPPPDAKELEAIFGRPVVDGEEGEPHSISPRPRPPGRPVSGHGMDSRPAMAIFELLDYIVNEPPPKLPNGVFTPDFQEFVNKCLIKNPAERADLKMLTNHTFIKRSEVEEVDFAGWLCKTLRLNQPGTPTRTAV
Chain of Dual specificity mitogen-activated protein kinase kinase; MEK1/2 (Homo sapiens) (Q02750 whole entry, looked up): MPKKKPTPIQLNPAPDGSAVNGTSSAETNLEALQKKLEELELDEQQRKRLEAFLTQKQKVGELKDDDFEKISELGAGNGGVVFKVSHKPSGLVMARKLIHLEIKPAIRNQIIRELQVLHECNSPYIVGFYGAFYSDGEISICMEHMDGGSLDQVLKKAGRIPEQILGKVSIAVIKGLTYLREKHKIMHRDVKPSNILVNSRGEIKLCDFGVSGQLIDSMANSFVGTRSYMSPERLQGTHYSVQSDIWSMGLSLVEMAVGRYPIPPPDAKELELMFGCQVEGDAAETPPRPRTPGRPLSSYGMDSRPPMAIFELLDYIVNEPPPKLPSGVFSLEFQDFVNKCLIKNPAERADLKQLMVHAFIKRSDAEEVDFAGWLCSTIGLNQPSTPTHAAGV

For the compound `O=C(NCc1c(Cl)cccc1Cl)c1ccc2[nH]nc(-c3ccncc3)c2c1`, the half-inhibitory concentration (IC50) in the data set on HT-29 amounted to 8400 nM; in data set [1] it was 154 nM.
Regarding `C[C@H](NC(=O)c1ccc2[nH]nc(-c3ccncc3)c2c1)c1cccc(Cl)c1`, the IC50 in the data set with HT-29 was 7500 nM; in data set [1], 469 nM.
With `Cc1cc(-c2n[nH]c3ccc(C(=O)NCc4c(Cl)cnc(Cl)c4Cl)cc23)ccn1`, the IC50 in data set [2] worked out at 16.7 nM; with HT-29 it was 1100 nM; in data set [1] it was 7.9 nM.
Take `O=C(NCCNc1ccccc1)c1ccc2[nH]nc(-c3ccncc3)c2c1`: the results for the IC50 (in the data set with HT-29; in data set [1]) were 6700 nM and 139 nM, respectively.
Take `O=C(NC(CO)c1cccc(Cl)c1)c1ccc2[nH]nc(C3CCOCC3)c2c1` (stereo not drawn): the figures for the IC50 (in the data set on HT-29; in data set [1]) were 11500 nM and 297 nM, respectively.
`O=C(NCc1ccc(Cl)c(F)c1Cl)c1ccc2[nH]nc(-c3ccncc3)c2c1`: the values for the IC50 (in data set [2]; with HT-29; in data set [1]) were 29.2 nM, 1500 nM and 11.9 nM, respectively.
Regarding `O=C(NCc1ccnc(Cl)c1)c1ccc2[nH]nc(-c3ccncc3)c2c1`, the IC50 was 26.4 nM in data set [2], 9400 nM in the data set with HT-29 and 22.5 nM in data set [1].
For the compound `O=C(NCCCc1ccccc1)c1ccc2[nH]nc(-c3ccncc3)c2c1`, the IC50 in data set [2] amounted to 42.9 nM; with HT-29, 4500 nM; in data set [1], 33.8 nM.
As to `CC(C)CC(NC(=O)c1ccc2[nH]nc(-c3ccncc3)c2c1)c1cccc(Cl)c1` (stereo not drawn), the IC50 with HT-29 was 7100 nM; in data set [1] it was above 2000 nM.
As to `CC(CNC(=O)c1ccc2[nH]nc(-c3ccncc3)c2c1)Oc1ccccc1` (stereo not drawn), the values for the IC50 (in data set [2]; in the data set on HT-29; in data set [1]) were 128 nM, 6000 nM and 38.6 nM, respectively.
As to `Cc1cc(-c2n[nH]c3ccc(C(=O)NC(CO)c4cccc(Cl)c4)cc23)ccn1` (stereo not drawn), the IC50 came out at 53.4 nM in data set [2], 2400 nM with HT-29 and 17.9 nM in data set [1].
With `O=C(NC(CO)c1cccc(Cl)c1)c1ccc2[nH]nc(-c3ccncc3)c2c1` (stereo not drawn), the IC50 in data set [2] came out at 72.4 nM; in the data set with HT-29, 5500 nM; in data set [1], 24.1 nM. For the same compound, the Fabs in data set [3] is 69%.
With `O=C(NC(CO)c1cccc(Cl)c1)c1ccc2[nH]nc(-c3ccccc3)c2c1` (stereo not drawn), the IC50 was found to be 6000 nM in the data set on HT-29 and 276 nM in data set [1].
For `CC(NC(=O)c1ccc2[nH]nc(-c3cc(F)c(O)c(F)c3)c2c1)c1cccc(Cl)c1` (stereo not drawn), the IC50 in data set [2] was 32.3 nM; in the data set on HT-29, 3300 nM; in data set [1] it was 22.4 nM.
Turning to `O=C(N[C@H](CO)c1cccc(Cl)c1)c1ccc2[nH]nc(-c3ccncc3)c2c1`, the IC50 in data set [2] was found to be 26.3 nM; in the data set on HT-29 it was 1900 nM; in data set [1] it was 7 nM.
For `Cc1cc(-c2n[nH]c3ccc(C(=O)N[C@@H](C)c4c(Cl)cccc4Cl)cc23)ccn1`, in that order: 19.4 nM, 480 nM and 9.5 nM.
With `CC(CNC(=O)c1ccc2[nH]nc(-c3ccncc3)c2c1)OCc1ccccc1` (stereo not drawn), the IC50 in the data set with HT-29 was 3700 nM; in data set [1], 88.7 nM.
For `Cc1cc(-c2n[nH]c3ccc(C(=O)NC(C)c4c(Cl)cnc(Cl)c4Cl)cc23)ccn1` (stereo not drawn), the IC50 in data set [2] came to 22.2 nM; with HT-29, 713 nM; in data set [1] it was 13.2 nM. The inhibition entry in data set [4] is “Dose-dependent effect”. For the same compound, the inhibition result in data set [5] is “inactive”.
On to `O=C(N[C@@H](CO)c1cccc(Cl)c1)c1ccc2[nH]nc(-c3ccncc3)c2c1`, for which the IC50 came out at 833 nM in data set [2], 16500 nM in the data set on HT-29 and 219 nM in data set [1].
Turning to `CC(C)Nc1cc(-c2c[nH]c(C(=O)N[C@H](CO)c3ccccc3)c2)c(Cl)cn1`, the values for the IC50 (in the data set with HT-29; in data set [1]) were 1600 nM and 15.9 nM, respectively.
`Nc1cc(-c2n[nH]c3ccc(C(=O)NC(CO)c4cccc(Cl)c4)cc23)ccn1` (stereo not drawn): the IC50 in data set [2] came out at 66.9 nM; in the data set with HT-29, 20900 nM; in data set [1] it was 15.6 nM.
With `O=C(NC(CO)c1cccc(Cl)c1)c1ccc2[nH]nc(-c3ccc(O)c(F)c3)c2c1` (stereo not drawn), the results for the IC50 (in data set [2]; in the data set on HT-29; in data set [1]) were 111 nM, 2500 nM and 32.9 nM, respectively.
As for `Cc1cc(-c2n[nH]c3ccc(C(=O)N[C@H](C)c4c(Cl)cccc4Cl)cc23)ccn1`, the values for the IC50 (in the data set on HT-29; in data set [1]) were 10700 nM and 632 nM, respectively.
Regarding `CC(NC(=O)c1ccc2[nH]nc(-c3ccncc3)c2c1)c1ccccc1Cl` (stereo not drawn), the IC50 in data set [2] stood at 35.9 nM; in the data set on HT-29, 3500 nM; in data set [1], 16.7 nM.
For `O=C(NCc1ccccc1Cl)c1ccc2[nH]nc(-c3ccncc3)c2c1`, the IC50 in data set [2] turned out to be 46.3 nM; in the data set with HT-29, 2800 nM; in data set [1], 31.3 nM.
`Cc1cc(-c2n[nH]c3ccc(C(=O)NC(C)c4ccncc4)cc23)ccn1` (stereo not drawn): the IC50 is 10400 nM with HT-29 and 226 nM in data set [1].
For `O=C(NCCOc1ccccc1)c1ccc2[nH]nc(-c3ccncc3)c2c1`, in that order: 9100 nM and 63.3 nM.
With `CCC(NC(=O)c1ccc2[nH]nc(-c3ccncc3)c2c1)c1cccc(Cl)c1` (stereo not drawn), the IC50 in data set [2] was 78.7 nM; in the data set on HT-29, 1500 nM; in data set [1], 58.9 nM.
For the compound `O=C(NCc1ccccc1)c1ccc2[nH]nc(-c3ccncc3)c2c1`, the values for the IC50 (in data set [2]; with HT-29; in data set [1]) were 106 nM, 13300 nM and 50.6 nM, respectively.
For the compound `O=C(NCc1c(Cl)cncc1Cl)c1ccc2[nH]nc(-c3ccncc3)c2c1`, the IC50 in data set [2] was determined as 55.5 nM; in the data set with HT-29, 6100 nM; in data set [1], 9.3 nM. Also, in data set [3], the Fabs is on record as 99%.
On to `O=C(NCCc1cccc(Cl)c1)c1ccc2[nH]nc(-c3ccncc3)c2c1`, for which the IC50 in the data set with HT-29 amounted to 15300 nM; in data set [1], 425 nM.
Take `O=C(NC(CO)c1cc(Cl)cc(Cl)c1)c1ccc2[nH]nc(-c3ccncc3)c2c1` (stereo not drawn): the IC50 with HT-29 worked out at 3400 nM; in data set [1], 61.1 nM.
For the compound `O=C(NCc1cccc(Cl)c1)c1ccc2[nH]nc(-c3ccncc3)c2c1`, the figures for the IC50 (in data set [2]; in the data set on HT-29; in data set [1]) were 74.2 nM, 2300 nM and 12.6 nM, respectively.
`O=C(NCCc1ccccc1)c1ccc2[nH]nc(-c3ccncc3)c2c1`: the results for the IC50 (in data set [2]; with HT-29; in data set [1]) were 38.7 nM, 3300 nM and 19.4 nM, respectively.
